In article PMC2891903 (The Journal of nutritional biochemistry, 2010):

Biological target: T1, vitamin D receptor (VDR) (Homo sapiens, UniProt P11473)
T1 sequence (P11473 1-427): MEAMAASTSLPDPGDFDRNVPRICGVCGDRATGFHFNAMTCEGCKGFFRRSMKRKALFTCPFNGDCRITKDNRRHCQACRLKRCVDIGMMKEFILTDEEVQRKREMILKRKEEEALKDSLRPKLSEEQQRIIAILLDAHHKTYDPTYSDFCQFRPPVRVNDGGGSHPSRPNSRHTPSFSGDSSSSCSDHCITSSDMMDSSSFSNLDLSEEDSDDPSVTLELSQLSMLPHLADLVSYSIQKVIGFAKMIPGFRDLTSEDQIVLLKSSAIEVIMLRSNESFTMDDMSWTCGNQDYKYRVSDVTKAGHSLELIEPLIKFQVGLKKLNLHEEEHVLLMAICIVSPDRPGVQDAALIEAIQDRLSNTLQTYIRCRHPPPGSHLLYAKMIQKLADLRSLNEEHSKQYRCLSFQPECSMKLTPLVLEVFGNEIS
T1 sequence (P19793 1-462 partner): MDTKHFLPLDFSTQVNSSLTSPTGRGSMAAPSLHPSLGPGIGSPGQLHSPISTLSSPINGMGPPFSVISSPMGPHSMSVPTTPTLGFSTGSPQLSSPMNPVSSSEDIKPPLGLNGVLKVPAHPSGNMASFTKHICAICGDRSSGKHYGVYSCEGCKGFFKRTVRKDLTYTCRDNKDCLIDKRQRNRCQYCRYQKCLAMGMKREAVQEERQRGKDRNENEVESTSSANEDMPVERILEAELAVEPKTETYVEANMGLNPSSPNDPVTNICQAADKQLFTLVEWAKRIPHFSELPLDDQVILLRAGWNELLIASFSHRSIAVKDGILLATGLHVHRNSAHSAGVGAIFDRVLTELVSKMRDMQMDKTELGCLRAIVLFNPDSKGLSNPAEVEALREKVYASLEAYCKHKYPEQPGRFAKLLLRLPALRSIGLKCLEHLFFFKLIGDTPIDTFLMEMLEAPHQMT
Test: competitive displacement of [3H][…] from VDR in transfected COS-7 lysate
Type: binding

Ki: 2.9 µM
Compound: COc1cc(/C=C/C(=O)CC(=O)/C=C/c2ccc(O)c(OC)c2)ccc1O [CM, curcumin]
